Results reported in patent US6369081B1, “Muscarinic receptor agonists” (The University of Toledo, priority 1999, dated 2002).

Key:
[1] = biological target: T1, M1 muscarinic receptors expressed in A9 L cells (Homo sapiens, UniProt P11229); conditions: mean ± s.e.m.; for PI metabolism (at 100 μM): percentage stimulation above basal levels at 100 μM relative to the carbachol response (100%), two to five assays; for PI metabolism Smax: maximal stimulation from full dose-response curves; for EC50: read-out: PI metabolism EC50, full dose-response curves
T1 sequence (P11229 1-460): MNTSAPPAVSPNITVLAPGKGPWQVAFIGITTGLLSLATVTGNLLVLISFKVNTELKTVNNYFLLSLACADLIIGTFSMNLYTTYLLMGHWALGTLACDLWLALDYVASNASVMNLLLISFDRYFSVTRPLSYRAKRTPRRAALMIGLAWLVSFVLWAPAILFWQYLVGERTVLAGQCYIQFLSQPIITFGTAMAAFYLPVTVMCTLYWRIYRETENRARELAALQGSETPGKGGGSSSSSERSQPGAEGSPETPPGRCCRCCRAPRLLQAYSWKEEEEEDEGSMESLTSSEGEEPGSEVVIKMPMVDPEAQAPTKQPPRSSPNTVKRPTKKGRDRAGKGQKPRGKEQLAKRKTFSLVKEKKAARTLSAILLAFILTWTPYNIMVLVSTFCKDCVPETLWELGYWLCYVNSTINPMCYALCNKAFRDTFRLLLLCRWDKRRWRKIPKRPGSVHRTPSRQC
From the text: (§1) Full dose-response curves were obtained for a few compounds.

M1 muscarinic receptors = biological target: T2, M1 muscarinic receptors (Homo sapiens, UniProt P11229); conditions: read-out: M1 Receptors Ki; M1 receptors expressed in A9 L cells
T2 sequence (P11229 1-460): T1 sequence (P11229 1-460)
From the text: as §1

M2 receptors = biological target: T3, M2 receptors (Homo sapiens, UniProt P08172); assay: Receptor binding at M2 receptors expressed in A9 L cells (high and low affinity sites); conditions: share of high affinity sites
T3 construct: expressed in transfected cells; host or cells: A9 L cells
T3 sequence (P08172 1-466): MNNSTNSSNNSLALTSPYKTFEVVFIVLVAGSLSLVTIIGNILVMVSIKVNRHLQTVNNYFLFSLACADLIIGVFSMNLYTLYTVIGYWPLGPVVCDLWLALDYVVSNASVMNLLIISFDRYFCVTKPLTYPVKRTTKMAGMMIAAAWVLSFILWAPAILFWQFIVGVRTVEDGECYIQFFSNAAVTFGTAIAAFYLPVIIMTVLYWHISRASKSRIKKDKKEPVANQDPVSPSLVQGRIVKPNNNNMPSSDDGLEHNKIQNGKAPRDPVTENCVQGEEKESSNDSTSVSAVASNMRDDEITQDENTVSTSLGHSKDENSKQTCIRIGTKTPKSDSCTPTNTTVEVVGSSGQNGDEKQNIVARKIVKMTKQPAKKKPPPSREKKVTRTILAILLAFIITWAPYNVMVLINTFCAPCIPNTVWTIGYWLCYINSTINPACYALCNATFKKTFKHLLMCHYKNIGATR

M2 Receptors % High affinity (M2 receptors)	Compound	PI metabolism (at 100 μM) [1]	Ki (M1 muscarinic receptors)	PI metabolism Smax [1]	EC50 [1]
	CN1CCC=C(c2nsnc2OCCCCCCCCCCOc2nsnc2C2=CCCN(C)C2)C1 [(CH2)10]	76 ± 11%			
	CN1CCC=C(c2nsnc2OCCCCCCCCOc2nsnc2C2=CCCN(C)C2)C1 [(CH2)8]	8.2 ± 1.4%	0.19 ± 0.04 nM		
	CN1CCC=C(c2nsnc2OCCCCCCCCCOc2nsnc2C2=CCCN(C)C2)C1 [(CH2)9]	27 ± 6.2%		140 ± 34%	720 ± 370 nM
	CN1CCC=C(c2nsnc2OCCCCCCOc2nsnc2C2=CCCN(C)C2)C1 [(CH2)6]	18 ± 0.06%	0.61 ± 0.18 nM		
	CN1CCC=C(c2nsnc2OCCOCCOCCOCCOc2nsnc2C2=CCCN(C)C2)C1 [(CH2)4O3, 2, 2′-bis-{[3-(1-methyl-1,2,5,6-tetrahydropyrid-3-yl)-1,2,5-thiadiazol-4-yloxy]ethyloxy}-diethylether]		0.12 ± 0.057 nM	250 ± 36%	8.5 ± 1.2 nM
	CN1CCC=C(c2nsnc2OCCCCCCCCCCCCOc2nsnc2C2=CCCN(C)C2)C1 [(CH2)12, 1, 12-bis-[3-(1-methyl-1,2,5,6-tetrahydropyrid-3-yl)-1,2,5-thiadiazol-4-yloxy]-dodecane]	84 ± 9.9%		190 ± 61%	340 ± 190 nM
26 ± 8.5%	CCCCCCOc1nsnc1C1=CCCN(C)C1 [Xanomeline]				
